Read-outs that look alike come from different tables or passages of the source.
Experiments:
Type in all cases: biochemical
[1] = target: TYK2 (Homo sapiens (Human), UniProt P29597); assay: JAK Caliper Enzyme Assay at 1 mM ATP, TYK2
Experimental: (§1) Compounds of the invention were evaluated by in vitro methods to determine their respective ability to inhibit the JAK kinases (TYK2, JAK1, JAK2, JAK3).
(§2) The human JAK inhibitory activity was determined by using a microfluidic assay to monitor phosphorylation of a synthetic peptide by the recombinant human kinase domain of each of the four members of the JAK family, JAK1, JAK2, JAK3 and TYK2. […] Each assay condition was optimized for enzyme concentration and room temperature incubation time to obtain a conversion rate of 20% to 30% phosphorylated peptide product. Reactions were terminated by the addition of stop buffer containing EDTA. Utilizing the LabChip 3000 mobility shift technology (Caliper Life Science), each assay reaction was sampled to determine the level of phosphorylation. This technology is separation-based, allowing direct detection of fluorescently labeled substrates and products. Separations are controlled by a combination of vacuum pressure and electric field strength optimized for each peptide substrate.
(§3) JAK Caliper Enzyme Assay at 1mM ATP
(§4) Compounds were added to a 384-well plate.
(§5) The data was collected using the HTS Well Analyzer software from Caliper Life Sciences. The data output for data analysis is the percent product converted calculated on peak height (Equation 1). % product converted=100*((product)/(product+substrate)) Equation 1: […]
(§6) The percent effect at each compound concentration was calculated based on the positive and negative control well contained within each assay plate (Equation 2). […] The negative control wells contained DMSO alone (at the same concentration as the compound wells) that was used to set the baseline activity in the assay (i.e., uninhibited JAK1, JAK2, JAK3 or TYK2). % effect=100*([…](positive control-negative control)) Equation 2: […]
(§7) The percent effect was plotted against the compound concentration compound.

[2] = target: JAK1 (Homo sapiens (Human), UniProt P23458); assay: JAK Caliper Enzyme Assay at 1 mM ATP, JAK1
Experimental: as §1, §2, §3, §4, §5, §6, §7

[3] = target: JAK3 (Homo sapiens (Human), UniProt P52333); assay: JAK Caliper Enzyme Assay at 1 mM ATP, JAK3
Experimental: as §1, §2, §3, §4, §5, §6, §7

Sequence of JAK1 (P23458 875-1153): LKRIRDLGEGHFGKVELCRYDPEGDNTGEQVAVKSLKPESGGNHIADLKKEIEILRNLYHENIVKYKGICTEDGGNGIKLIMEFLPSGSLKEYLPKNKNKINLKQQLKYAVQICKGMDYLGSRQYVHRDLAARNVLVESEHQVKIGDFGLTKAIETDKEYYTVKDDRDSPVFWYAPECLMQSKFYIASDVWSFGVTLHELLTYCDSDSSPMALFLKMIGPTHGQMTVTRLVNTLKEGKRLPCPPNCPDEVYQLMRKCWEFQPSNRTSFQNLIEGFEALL
Sequence of JAK3 (P52333 822-1111): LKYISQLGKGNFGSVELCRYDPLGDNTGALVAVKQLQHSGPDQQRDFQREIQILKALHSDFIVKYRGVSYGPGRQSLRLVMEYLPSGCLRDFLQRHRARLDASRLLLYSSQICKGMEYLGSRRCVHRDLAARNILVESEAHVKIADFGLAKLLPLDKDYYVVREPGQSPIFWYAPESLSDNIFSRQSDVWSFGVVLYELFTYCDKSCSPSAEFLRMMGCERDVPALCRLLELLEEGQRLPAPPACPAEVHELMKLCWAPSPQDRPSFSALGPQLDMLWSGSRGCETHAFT
Sequence of TYK2 (P29597 897-1176): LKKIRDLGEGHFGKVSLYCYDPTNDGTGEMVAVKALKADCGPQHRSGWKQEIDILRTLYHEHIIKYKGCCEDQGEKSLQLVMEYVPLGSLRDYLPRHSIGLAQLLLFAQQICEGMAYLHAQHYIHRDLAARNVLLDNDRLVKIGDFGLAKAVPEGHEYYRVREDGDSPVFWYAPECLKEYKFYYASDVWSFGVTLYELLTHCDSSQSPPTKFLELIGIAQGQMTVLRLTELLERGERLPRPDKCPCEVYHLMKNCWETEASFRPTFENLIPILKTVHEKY

Row | SMILES | IC50 [1] [nM] | IC50 [2] [nM] | IC50 [3] [nM] | IC50 ([2]; JAK Caliper enzyme assay) [nM] | IC50 ([3]; JAK Caliper enzyme assay) [nM]
1 | N#CC[C@]1(n2cc(-c3nc(-c4cnn(CCO)c4)cc4ncccc34)cn2)C[C@H](C#N)C1 [Example 7, trans-3-(cyanomethyl)-3-(4-{7-[1-(2-hydroxyethyl)-1H-pyrazol-4-yl]-1,6-naphthyridin-5-yl}-1H-pyrazol-1-yl)cyclobutanecarbonitrile] | 89 | 189 | > 10000 |  | 
2 | CC(=O)N(C)C1CC(CC#N)(n2ccc(-c3nc(-c4cc[nH]n4)cc4ncccc34)n2)C1 (stereo not drawn) [Example 33, N-[trans-3-(cyanomethyl)-3-{3-[7-(1H-pyrazol-3-yl)-1,6-naphthyridin-5-yl]-pyrazol-1-yl}cyclobutyl]-N-methylacetamide] | 850 | 5700 | > 10000 |  | 
3 | CC(=O)N(C)[C@H]1C[C@](CC#N)(n2ccc(-c3nc(-c4cc[nH]n4)cc4ncccc34)n2)C1 [Example 34, N-[cis-3-(cyanomethyl)-3-{3-[7-(1H-pyrazol-3-yl)-1,6-naphthyridin-5-yl]-pyrazol-1-yl}cyclobutyl]-N-methylacetamide] | 238 | 1700 | > 10000 |  | 
4 | Cc1cc(-c2cc3ncccc3c(-c3ccn(C4(CC#N)CN(CC(F)(F)F)C4)n3)n2)n[nH]1 [Example 42, [3-{3-[7-(5-methyl-1H-pyrazol-3-yl)-1,6-naphthyridin-5-yl]-1H-pyrazol-1-yl}-1-(2,2,2-trifluoroethyl)azetidin-3-yl]acetonitrile] | 36 | 1610 | > 10000 |  | 
5 | Cn1nc(-c2cc3ncccc3c(-c3ccn([C@]4(CC#N)C[C@@H](C#N)C4)n3)n2)cc1CO [Example 62, trans-3-(cyanomethyl)-3-(3-{7-[5-(hydroxymethyl)-1-methyl-1H-pyrazol-3-yl]-1,6-naphthyridin-5-yl}-1H-pyrazol-1-yl)cyclobutanecarbonitrile] | 153 | > 10000 | > 10000 |  | 
6 | Cn1nccc1C1CC(CC#N)(n2ccc(-c3nc(-c4cn[nH]c4)cc4ncccc34)n2)C1 (stereo not drawn) [Example 86, [cis-3-(1-methyl-1H-pyrazol-5-yl)-1-{3-[7-(1H-pyrazol-4-yl)-1,6-naphthyridin-5-yl]-1H-pyrazol-1-yl}cyclobutyl]acetonitrile] | 430 | 2410 | > 10000 |  | 
7 | Cn1cc(-c2cc3ncccc3c(-c3ccn(C4(CC#N)CN(CC5CC5)C4)n3)n2)cn1 [Example 101, [1-(cyclopropylmethyl)-3-{3-[7-(1-methyl-1H-pyrazol-4-yl)-1,6-naphthyridin-5-yl]-1H-pyrazol-1-yl}azetidin-3-yl]acetonitrile] | 73 | 2040 | > 10000 |  | 
8 | C=C(CO)n1cc(-c2cc3ncccc3c(-c3ccn(C4(CC#N)CN(S(C)(=O)=O)C4)n3)n2)cn1 [Example 131, [3-(3-{7-[1-(3-hydroxyprop-1-en-2-yl)-1H-pyrazol-4-yl]-1,6-naphthyridin-5-yl}-1H-pyrazol-1-yl)-1-(methylsulfonyl)azetidin-3-yl]acetonitrile] | 251 | 1630 | > 10000 |  | 
9 | CS(=O)(=O)N1CC(CC#N)(n2ccc(-c3nc(-c4cnn(CC5(O)COC5)c4)cc4ncccc34)n2)C1 [Example 133, {3-[3-(7-{1-[(3-hydroxyoxetan-3-yl)methyl]-1H-pyrazol-4-yl}-1,6-naphthyridin-5-yl)-1H-pyrazol-1-yl]-1-(methylsulfonyl)azetidin-3-yl}acetonitrile] | 76 | 1670 | > 10000 |  | 
10 | N#CCC1(n2ccc(-c3nc(-c4ncc[nH]4)cc4ncccc34)n2)CN(CC(F)(F)F)C1 [Example 148, [3-{3-[7-(1H-imidazol-2-yl)-1,6-naphthyridin-5-yl]-1H-pyrazol-1-yl}-1-(2,2,2-trifluoroethyl)azetidin-3-yl]acetonitrile] | 235 | 8800 | > 10000 |  | 
11 | Cn1cnc(-c2cc3ncccc3c(-c3ccn(C4(CC#N)CN(CC(F)(F)F)C4)n3)n2)c1 [Example 149, [3-{3-[7-(1-methyl-1H-imidazol-4-yl)-1,6-naphthyridin-5-yl]-1H-pyrazol-1-yl}-1-(2,2,2-trifluoroethyl)azetidin-3-yl]acetonitrile] | 125 | > 10000 | > 10000 |  | 
12 | N#CCC1(n2ccc(-c3nc(-c4cnn(C5CCCCO5)n4)cc4ncccc34)n2)CN(CC(F)(F)F)C1 (stereo not shown) [Example 155, [3-(3-{7-[2-(tetrahydro-2H-pyran-2-yl)-2H-1,2,3-triazol-4-yl]-1,6-naphthyridin-5-yl}-1H-pyrazol-1-yl)-1-(2,2,2-trifluoroethyl)azetidin-3-yl]acetonitrile] | 312 | 6460 | > 10000 |  | 
13 | N#CCC1(n2ccc(-c3nc(-c4cccnc4)cc4ncccc34)n2)CN(CC(F)(F)F)C1 [Example 171, [3-{3-[7-(pyridin-3-yl)-1,6-naphthyridin-5-yl]-1H-pyrazol-1-yl}-1-(2,2,2-trifluoroethyl)azetidin-3-yl]acetonitrile] | 66 | 2730 | > 10000 |  | 
14 | CS(=O)(=O)N1CC(CC#N)(n2ccc(-c3nc(-c4cccc(O)n4)cc4ncccc34)n2)C1 [Example 180, [3-{3-[7-(6-hydroxypyridin-2-yl)-1,6-naphthyridin-5-yl]-1H-pyrazol-1-yl}-1-(methylsulfonyl)azetidin-3-yl]acetonitrile] | 42 | 3740 | > 10000 |  | 
15 | CS(=O)(=O)N1CC(CC#N)(n2ccc(-c3nc(-c4ccnc(O)c4)cc4ncccc34)n2)C1 [Example 186, [3-{3-[7-(2-hydroxypyridin-4-yl)-1,6-naphthyridin-5-yl]-1H-pyrazol-1-yl}-1-(methylsulfonyl)azetidin-3-yl]acetonitrile] | 74 | 4860 | > 10000 |  | 
16 | N#CCC1(n2ncc(-c3cc(-c4cccc(C(N)=O)c4)cc4ncccc34)n2)CC(C#N)C1 (stereo not drawn) [Example 431, 3-(5-{2-[cis-3-cyano-1-(cyanomethyl)cyclobutyl]-2H-1,2,3-triazol-4-yl}quinolin-7-yl)benzamide] |  |  |  | 572 | > 10000
17 | N#CC[C@]1(n2ncc(-c3cc(-c4cccc(C(N)=O)c4)cc4ncccc34)n2)C[C@@H](C#N)C1 [Example 432, 3-(5-{2-[trans-3-cyano-1-(cyanomethyl)cyclobutyl]-2H-1,2,3-triazol-4-yl}quinolin-7-yl)benzamide] |  |  |  | 3900 | > 10000

Second part, the compound after the results:

Row | IC50 [1] [nM] | IC50 [2] [nM] | IC50 [3] [nM] | IC50 ([2]; JAK Caliper enzyme assay) [nM] | IC50 ([3]; JAK Caliper enzyme assay) [nM] | SMILES
18 | 15 | 21 | 1120 |  |  | N#CC[C@]1(n2cc(-c3nc(-c4cnn(CCO)c4)cc4ncccc34)cn2)C[C@@H](C#N)C1 [Example 6, cis-3-(cyanomethyl)-3-(4-{7-[1-(2-hydroxyethyl)-1H-pyrazol-4-yl]-1,6-naphthyridin-5-yl}-1H-pyrazol-1-yl)cyclobutanecarbonitrile]
19 | 20 | 451 | > 10000 |  |  | N#CCC1(n2ccc(-c3nc(-c4ccn[nH]4)cc4ncccc34)n2)CN(S(=O)(=O)C2CC2)C1 [Example 18, [1-(cyclopropylsulfonyl)-3-{3-[7-(1H-pyrazol-5-yl)-1,6-naphthyridin-5-yl]-1H-pyrazol-1-yl}azetidin-3-yl]acetonitrile]
20 | 17 | 672 | 6550 |  |  | Cn1nc(-c2cc3ncccc3c(-c3ccn([C@]4(CC#N)C[C@H](C#N)C4)n3)n2)cc1CO [Example 63, cis-3-(cyanomethyl)-3-(3-{7-[5-(hydroxymethyl)-1-methyl-1H-pyrazol-3-yl]-1,6-naphthyridin-5-yl}-1H-pyrazol-1-yl)cyclobutanecarbonitrile]
21 | 18 | 1590 | > 10000 |  |  | Cn1nc(-c2cc3ncccc3c(-c3ccn([C@]4(CC#N)C[C@@H](C#N)C4)n3)n2)cc1N [Example 65, trans-3-{3-[7-(5-amino-1-methyl-1H-pyrazol-3-yl)-1,6-naphthyridin-5-yl]-1H-pyrazol-1-yl}-3-(cyanomethyl)cyclobutanecarbonitrile]
22 | 7 | 155 | 2500 |  |  | Cn1nc(-c2cc3ncccc3c(-c3ccn([C@]4(CC#N)C[C@H](C#N)C4)n3)n2)cc1N [Example 66, cis-3-{3-[7-(5-amino-1-methyl-1H-pyrazol-3-yl)-1,6-naphthyridin-5-yl]-1H-pyrazol-1-yl}-3-(cyanomethyl)cyclobutanecarbonitrile]
23 | 12 | 43 | 634 |  |  | CCn1cc(-c2cc3ncccc3c(-c3ccn(C4(CC#N)CC(C#N)C4)n3)n2)cn1 (stereo not drawn) [Example 112, cis-3-(cyanomethyl)-3-{3-[7-(1-ethyl-1H-pyrazol-4-yl)-1,6-naphthyridin-5-yl]-1H-pyrazol-1-yl}cyclobutanecarbonitrile]
24 | 22 | 409 | 8970 |  |  | CCn1cc(-c2cc3ncccc3c(-c3ccn([C@]4(CC#N)C[C@@H](C#N)C4)n3)n2)cn1 [Example 113, trans-3-(cyanomethyl)-3-{3-[7-(1-ethyl-1H-pyrazol-4-yl)-1,6-naphthyridin-5-yl]-1H-pyrazol-1-yl}cyclobutanecarbonitrile]
